In patent US12447171B2 (CELGENE QUANTICEL RESEARCH, INC., priority 2019, dated 2025):
Peptide text beside a SMILES is read from it. * marks the point of attachment. Cbz = O=C(OCc1ccccc1)*; CH2F = FC*

Columns and labels:
[1] = system: CD11b, CD14, and CD86 surface marker expression; assay: Flow cytometry of differentiation markers in AML cell lines; assay type: cell-based
Method: FACS samples were acquired using BD FACSCanto II. Cell viability was also examined by FACS analysis with Fixable Viability dye 780 (Thermofisher Scientific, Waltham, MA) according to the manufacturer's instructions. Briefly, 10^5 cells were seeded in U bottom 96 well plate, next day treated with 9 doses of CC-90011 (started from 10 uM, 3-fold dilution down), cells were incubated at 37° C. for 6 days and harvested for staining. Cells were washed once with DPBS and stained with 1×FVS780 and washed twice with staining buffer. The samples were stained with 1:200 dilution surface antibodies. Results were then analyzed with FlowJo V10 software (TreeStar Inc., Ashland, OR).

22 AML cell lines = assay: Cell viability assay, single agents and 5-azacytidine-venetoclax combination, AML cell line panel; conditions: number of 22 AML cell lines
BaF-FLT3(WT) = assay: Cell viability assay (Cell Titer-Glo), BaF3 cells expressing FLT3; assay type: cell-based; conditions: Mus musculus
BaF-FLT3(D835Y) = assay: as above; assay type: cell-based; conditions: Mus musculus
BaF-FLT3-ITD = assay: as above; assay type: cell-based; conditions: Mus musculus
MOLM-13 xenograft model = assay: Disseminated MOLM-13 xenograft survival study; assay type: in vivo, mice; conditions: MOLM-13, NOD/SCID mice; single agent PO qd×21: midostaurin 100 mg/kg, gilteritinib 4 mg/kg, venetoclax 100 mg/kg; vehicle=19 days
Method: (§1) LEED models oral administration of AZA, while HELD models intravenous or subcutaneous administration of AZA.
The animals were fed ad libitum water (reverse osmosis, 1 ppm Cl), and NIH 31 Modified and Irradiated Lab Diet® consisting of 18.0% crude protein, 5.0% crude fat, and 5.0% crude fiber. The mice were housed on irradiated Enrich-o'cobs™ Laboratory Animal Bedding in static microisolators on a 12-hour light cycle at 20-22° C. (68-72° F.) and 40-60% humidity.
(§2) On each day of dosing, an appropriate amount of gilteritinib was dissolved in 0.5% methylcellulose in DI water to yield a dosing solution at 0.4 mg/mL. Each week, an appropriate amount of venetoclax was dissolved in 10% ethanol:30% PEG400:60% phosal 50 propylene glycol to yield a dosing solution at 10 mg/mL. […] Each test mouse received 5×10^6 MOLM-13 cells or 10^7 MV4-11 cells (0.2 mL cell suspension) by tail vein injection. Dosing was initiated three days after tumor cell inoculation, which was designated as Day 1 of the study. NOD/SCID mice (n=9-12/group) were randomized according to body weight and dosed. […] Vehicle was administered both IP and PO. The dosing volume for all treatments was 10 mL/kg, scaled to the weight of each individual animal.
(§3) Animals were monitored individually for an endpoint of moribundity due to progression of the leukemia. Full hind limb paralysis, severe ocular proptosis, or moribundity was considered sufficient for euthanasia due to tumor progression. Moribund animals were defined as sick animals unable to reach food and water. These deaths were classified as death on survival study. The time to endpoint (TTE), in days, was recorded for each mouse that died of its disease or was euthanized due to extensive tumor progression. […] An animal classified as having died from treatment-related (TR) causes was assigned a TTE value equal to the day of death. An animal classified as having died from non-treatment-related (NTR) causes, or used for sampling before endpoint, was excluded from TTE calculations and all further analyses. The median TTE value was calculated for each group. The median TTE of treated mice was expressed as a percentage of the median TTE of the control mice (% T/C), and the increase in life span (ILS) was calculated as: ILS=% T/C−100%, where T=median TTE treated, and C=median TTE control. Thus, if T=C, ILS=0%.
Animals were weighed daily on Days 1-5, then twice per week until the completion of the study. […] Individual body weight loss was monitored as per protocol and any animal that exceeded the limits for acceptable body weight loss was euthanized. Group mean body weight loss also was monitored as per protocol. Dosing was suspended in any group that exceeded the limits for acceptable mean body weight loss. If mean body weight recovered, then dosing may be resumed in that group, but at a lower dosage or less frequent dosing schedule. Acceptable toxicity for the maximum tolerated dose was defined as a group mean body-weight loss of less than 20% during the study and not more than one TR death among ten treated animals. […] A death was classified as NTR if there was no evidence that death was related to treatment side effects or tumor progression. Non-treatment-related deaths may be further characterized based on cause of death. A death may be classified as NTRa if it resulted from an accident or human error. A death may be classified as NTRu if the cause of death is unknown and there is no available evidence of death related to treatment side effects, metastasis, accident or human error, although death due to these etiologies cannot be excluded. Survival was analyzed by the Kaplan-Meier method, based on TTE values. The logrank (Mantel-Cox) and Gehan-Breslow-Wilcoxon tests determined the significance of the difference between the overall survival experiences (survival curves) of two groups, based on TTE values.
These experiments were repeated with a second FLT3-ITD cell line, MOLM-13.

MV4-11 xenograft models = assay: Disseminated MV4-11 xenograft survival study; assay type: in vivo; conditions: MV4-11, NCG mice; single agent PO qd×21: venetoclax 100 mg/kg, midostaurin 100 mg/kg; vehicle=29.5
Method: as §1
as §2, with “NOD/SCID mice (n=9-12/group) were randomized according to body weight and dosed.” left out
as §3
Animals were weighed daily on Days 1-5, then twice per week until the completion of the study. […] Individual body weight loss was monitored as per protocol and any animal that exceeded the limits for acceptable body weight loss was euthanized. Group mean body weight loss also was monitored as per protocol. Dosing was suspended in any group that exceeded the limits for acceptable mean body weight loss. If mean body weight recovered, then dosing may be resumed in that group, but at a lower dosage or less frequent dosing schedule. […] Survival was analyzed by the Kaplan-Meier method, based on TTE values. The logrank (Mantel-Cox) and Gehan-Breslow-Wilcoxon tests determined the significance of the difference between the overall survival experiences (survival curves) of two groups, based on TTE values.

[2] = system: engineered BaF3 cell lines expressing either wild-type FLT3, FLT3-ITD or FLT3 (D835Y); assay: Cell viability and synergy, panel of engineered BaF3 cell lines; assay type: cell-based; conditions: Mus musculus, FIG. 10A, read-out: EC50 (resistant to venetoclax)
MCL-1 = assay: Western blot of MCL-1 in AML cell lines; assay type: cell-based; conditions: MV4-11; 20 μM Z-VAD-FMK for 1 hour before 5-azacytidine for another 16 hours
Method: Lysates were quantified using a bicinchoninic acid (BCA) kit (Piece/Thermo Fisher, Waltham, MA). 20 to 30 μg protein was resolved on a 4-12% SDS-PAGE gel, transferred to PVDF membranes (80V/90 minute by wet-transfer), and blocked with Oddysey TBS blocking buffer for 1 hour and then probed with appropriate primary antibodies overnight at 4° C. using dilution as recommended by manufacturer. Membranes were washed three times for a total of 30 minutes and then incubated with secondary antibodies at room temperature in the dark for 1 hour. After another three washes, Odyssey infrared imaging system and companion software (LI-COR biosciences, Lincoln, NE, USA) were used to scan immunoblot membranes and to quantify band intensity according to the manufacturer's instructions. The ratio of proteins of interest to loading control in treated samples was normalized to the corresponding ratio in untreated cells. Antibodies used for immunoblotting were purchased from the following sources: BCL-2 (sc-7382), MCL1- (sc-819) from Santa Cruz Biotechnology (Dallas, TX, USA, Bim (2819), caspase-3 (9664) from Cell Signaling Technology; beta-Actin (A2228) from Sigma-Aldrich; DNMTI (ab188453) from AbCam; TRDye 680 goat anti-rabbit and IRDye 800 goat anti-mouse secondary antibodies (#925-68073 and #925-32212) were purchased from Li-COR Biosciences (Lincoln, NE).

Compound | EC50 (BaF-FLT3(WT)) | EC50 (BaF-FLT3(D835Y)) | EC50 (BaF-FLT3-ITD) | Median survival (MOLM-13 xenograft model) | Median survival (MV4-11 xenograft models) | also measured
COc1ccc(-c2c(-c3ccc(C#N)c(F)c3)nc(N3CCC(N)CC3)n(C)c2=O)cc1F [CC-90011, 4-[2-(4-amino-piperidin-1-yl)-5-(3-fluoro-4-methoxy-phenyl)-1-methyl-6-oxo-1,6-dihydro-pyrimidin-4-yl]-2-fluoro-benzonitrile] | – | – | – | – | – | change in differentiation markers ([1]; five cell lines: HEL, KG-1, MOLM-13, KG-1a, and NOMO-1): no changes in any of these differentiation markers; cell lines with increased expression of at least one differentiation marker ([1]; number of 22 AML cell lines following CC-90011 treatment): Seventeen; cell lines sensitive to CC-90011 (single agent cytotoxicity) (22 AML cell lines): Eleven
CCc1nc(C(N)=O)c(Nc2ccc(N3CCC(N4CCN(C)CC4)CC3)c(OC)c2)nc1NC1CCOCC1 [Gilteritinib] | 4 nM | 1.8 nM | 1.8 nM | 34 days | – | –
CO[C@@H]1[C@H](N(C)C(=O)c2ccccc2)C[C@H]2O[C@]1(C)n1c3ccccc3c3c4c(c5c6ccccc6n2c5c31)C(=O)NC4 [Midostaurin] | – | – | – | 34 days | 57 | –
CC1(C)CCC(CN2CCN(c3ccc(C(=O)NS(=O)(=O)c4ccc(NCC5CCOCC5)c([N+](=O)[O-])c4)c(Oc4cnc5[nH]ccc5c4)c3)CC2)=C(c2ccc(Cl)cc2)C1 [Venetoclax] | > 10000 nM | 4330 nM | > 10000 nM | 29 days | 35.5 | EC50 [2]: > 1000 nM
COC(=O)C[C@H](NC(=O)[C@H](C)NC(=O)[C@@H](NC(=O)OCc1ccccc1)C(C)C)C(=O)CF [Z-VAD-FMK] (Cbz-Val-Ala-Asp(OMe)-CH2F) | – | – | – | – | – | effect on MCL-1 degradation by 5-azacytidine (MCL-1): partially ablated
